Data as given in patent US20020111314A1, “Novel stimulation of gene expression and protein synthesis of heat shock protein 72/73 (Hsp 70)” (The Trustees of Columbia University, priority 1995, published 2002).
Entries after “also recorded” stand apart in the source; their conditions may differ. Numbered stars: 1 amine (or outer) side, 2 acyl side, 3 side chain; on linkers, the order of the positions; unused ones are H or OH. Bridge positions count the residues as written; N and C are the ends. Square brackets hold non-standard residues; d marks the D form. Peptide text beside a SMILES is read from it. I, II: the chains in the order shown. * marks the point of attachment. Actinocin(9to1) = Cc1c2oc3c(C)ccc(C(=O)[*:1])c3nc-2c(C(=O)[*:2])c(N)c1=O; Sta = CC(C)C[C@H](N)[C@@H](O)CC(=O)O; NMeV = CN[C@H](C(=O)O)C(C)C; Isovaleryl = CC(C)CC(=O)*; Cbz = O=C(OCc1ccccc1)*; Sar = CNCC(=O)O

What was measured:
hsp70, i.e. hsp72, mRNA = test: Northern blot of hsp70 (hsp72) mRNA in HepG2 cells; format: cell-based, human; conditions: ALLN 40 μg/ml plus actinomycin D 10 μg/ml or cycloheximide 50 μg/ml, 4 hours
Method: After 4 hours treatment at 37° C., cells were harvested. (B). […] The total RNA was prepared, and equal amounts of the samples were loaded and run on a 1% formaldehyde-agarose gel, blotted onto a nylon membrane, and subsequently hybridized with specific synthetic oligonucleotide probes for hsp70 mRNA as described under Experimental Details. The position of 28S and 18S rRNA are shown for reference.
Equal amounts of tRNA samples (10 μg) were size-fractionated on a 1% agarose-formaldehyde gel according to the methods described (Maniatis, et al., 1982) and transferred to a piece of QIAGEN plus nylon membrane. To determine loading and transfer efficiency, RNA was stained with ethidium bromide before and after transfer. The membrane was baked for 30 min. at 80° C. in vacuo (a vacuum) followed by UV cross-linking. It was then incubated for 4 hours at 65° C. in a prehybridization mixture containing 10% dextran sulfate, 1% SDS, 1M sodium chloride, 50 mM Tris-HCl (pH 7.5) and 100 μg/ml denatured salmon sperm DNA. […] The membrane was then washed four times with 2×SSC, 0.1% SDS at room temperature, one time at 65° C. for 30 min., and one time at room temperature again for 5 min., and finally rinsed with 2×SSC at room temperature.

HSF1 = HSF1 steady-state level and trimerization (Western blot, EGS cross-linking) in HepG2 cells; format: cell-based, human
Method: HepG2 cells were treated with serum-free MEM containing 1.5% BSA for 2 hours at 37° C. without any additions (lane 1), at 37° C. but containing 40 μg/ml of ALLN in the medium (lane 2), at 37° C. in a medium containing both ALLN and 50 μg/ml of cycloheximide (lane 3), at 42° C. alone (lane 4), or at 42° C. plus cycloheximide in the medium (lane 5). Cell lysates were prepared as described under Experimental Details. The lysates were either directly run on the SDS-PAGE (A) to show the steady-state protein levels of HSF1 or subjected to cross-linking with ethylene glycol bis sucrinimidylsuccinate (EGS) before running the gel (B) to show the oligomeric forms of HSF1. The proteins were then transfered to a nitrocellulose membrane and immunoblotted with anti-human HSF1 antibody. Arrows on the right side indicates the monomeric, dimeric or trimeric forms of HSF1, respectively. This experiment was repeated three times with identical results.
Total RNA was prepared using the procedure of Chomczynski and Sacchi (Chomczynski, et al., 1987) and a commercially prepared reagent, TRISOLV™ (Biotecx Laboratories Inc., TX). Equal amounts of tRNA samples (10 μg) were size-fractionated on a 1% agarose-formaldehyde gel according to the methods described (Maniatis, et al., 1982) and transferred to a piece of QIAGEN plus nylon membrane. To determine loading and transfer efficiency, RNA was stained with ethidium bromide before and after transfer. The membrane was baked for 30 min. at 80° C. in vacuo (a vacuum) followed by UV cross-linking. It was then incubated for 4 hours at 65° C. in a prehybridization mixture containing 10% dextran sulfate, 1% SDS, 1M sodium chloride, 50 mM Tris-HCl (pH 7.5) and 100 μg/ml denatured salmon sperm DNA. Hybridization was carried out for 18 hours at 65° C. in the same buffer with a ^32P-labeled (1×10^6 cpm/ml) 40-mer oligonucleotide probe to the untranslated 5′ region of a human hsp70 gene (Oncogene Science). […] The membrane was then washed four times with 2×SSC, 0.1% SDS at room temperature, one time at 65° C. for 30 min., and one time at room temperature again for 5 min., and finally rinsed with 2×SSC at room temperature. This membrane was air dried and exposed to X-ray film at −80° C. for 48 hours. For measurement of the steady-state HSF1 protein levels, whole cell extracts were prepared by lysing the cells directly with 2×SDS-sample buffer (Maniatis, et al., 1982). For chemical cross-linking experiments, whole-cell extracts were prepared as described (Mosser, et al., 1988). Briefly, the cold PBS-washed cell pellets were quickly and repeatedly frozen in liquid nitrogen. […]

Hsp70 = Hsp70 induction in HepG2 cells ([3H]-leucine labeling, denaturing immunoprecipitation); format: cell-based, human; conditions: HepG2; for induction of Hsp70 by protease inhibitors (FIG. 3A): 4 h pre-treatment, ALLN 40, ALLM 40, leupeptin 50, pepstatin A 50, E-64d 25 μg/ml, PMSF 1 mM, aprotinin 100 KIU/ml
Method: HepG2 cells were grown up to 95% confluence and then preincubated for 4 hours in a 37° C. incubator with serum-free minimum essential medium (MEM), followed by radiolabeling with 3H-leucine (150 μCi/ml) dissolved in serum-free, leucine-free medium. Preincubation and labeling medium each contained 1.5% bovine serum albumin (BSA) plus different concentrations of ALLN as indicated. After labeling, cells were collected and lysed, and Hsp70 was immunoprecipitated under denaturing conditions as described under Experimental Details. Cell lysates containing an equal amount of TCA-insoluble radioactivity were used for immunoprecipitation. (A): The immunoprecipitates were analyzed by sodium dodecyl sulfate-polyacryamide gel electrophoresis (SDS-PAGE) and fluorography. Numbers on the left-hand side denote molecular markers. (B): The Hsp70 radioactivity was quantitated by scintillation counting and plotted. All the values were presented as means±SD from three individual culture dishes.
(§1) FIGS. 3A-3B: Effects of the other protease inhibitors on Hsp70 biosynthesis in HepG2 cells. HepG2 cells were preincubated in serum-free MEM containing either 1.5% BSA alone (Control), or BSA plus 40 μg/ml of ALLN, 40 μg/ml of ALLM, 50 μg/ml of leupeptin, 50 μg/ml of pepstatin A, 25 μg/ml of E-64d, 1 mM of phenylmethylsulfonyl fluoride (PMSF), 100 KIU/ml of apotinin, 1 mM of Benzamidine (Benz), 200 μM of calpain inhibitor peptide (CIP). Radiolabeling (in the presence of protease inhibitors), lysis and immunoprecipitation were performed as described in FIG. 1. The Hsp70 specific radioactivity (A) and the amount of total incorporated radioactivity (TCA-cpm) (B) were compared with each other. All the values were presented as the mean±SD from three individual culture dishes.
FIGS. 9A-9B: Effects of proteasome inhibitors on Hsp70 induction. HepG2 cells were preincubated with the proteasome inhibitors MG132 at a final concentration of either 10 μM or 30 μM (A), or lactacystin at 10 μM (B) for 4 hours under conditions described in FIG. 3. These cells were then subjected to radiolabeling (30 min), cell lysis, and immunoprecipitation with anti-Hsp70 antibody. The experiments with MG132 (A) were repeated twice; the effects of lactacystin (B) were studied in triplicate culture dishes.
ALLN, leupeptin, mouse anti-human Hsp72/73 monoclonal antibody, a secondary antibody conjugated with horseradish peroxidase (HRP) (goat anti-rabbit immunoglubin G [IgG]), and rabbit anti-rat IgG antibody were from Boehringer Mannheim Co. Anti-Human Hsp25 and anti-human Hsp60 monoclonal antibodies, ALLM, Calpain inhibitor peptide (CIP), dimethyl sulfoxide (DMSO) and dithiothreitol (DTT) were from Sigma. Human Hsp70 oligonucleotide probe was from Oncogene Science. This oligonucleotide was ^32P labeled at the 5′-end by T4 Kinase, which was from Biolabs. ^32P was from ICN Pharmaceutical Inc. L-[4,5-^3H] leucine was from Amersham Co. Anti-human Bip (immunoglobulin heavy chain binding protein, also called Grp78), anti-human Hsp27, anti-human Hsp60, and anti-human Hsp90 monoclonal antibodies were from Stress Genes. Anti-human Hsp86 and Hsp104 antibodies were from Affinity Bioreagent Inc. Nitrocellular transfer and immobilization membranes were from Schleicher & Schuell, Keene, N.H. RNA extraction kits were from Biotect, Tex. The polyclonal antibody against the human HSF1 protein was a generous gift from Dr. Carl Wu of the National Institute of Health (Rabindran, et al., 1993). Ethylene glycol bis(succunimidylsuccinate) (EGS) was from Pierce. Cbz-leucyl-leucyl-leucinal (MG132) was a gift of Dr. H. Ploegh at the Massachusetts Institute of Technology. All the other tissue culture supplies and chemicals were obtained from supplies as previously described (Dixon, et al., 1991). The HepG2 cell culture conditions were maintained as previously described (Dixon, et al., 1991).

HepG2 cells = test: Total incorporation of radiolabel (TCA cpm) as indicator of cell toxicity in HepG2 cells; format: cell-based, human; conditions: MG132 10 or 30 μM, lactacystin 10 μM, data not shown
Method: as §1
Preincubation and labeling media each contained either 1.5% bovine serum albumin (BSA) alone, or BSA plus ALLN (40 μg/ml except as otherwise indicated), or BSA plus other protease inhibitors at concentrations indicated in the figure legends. At the indicated times, cells were removed from the 37° C. incubator and placed on ice, washed with cold phosphate-buffer saline (PBS) twice and lysed with lysis buffer containing 1% Triton X-100 (TX100), 1% deoxycholic acid (DOC) and 0.1% SDS in PBS containing proteinase inhibitors: 2 mM phenylmethylsulfonyl fluoride (PMSF); 2 μg/ml ALLN; 2 μg/ml leupeptin; and 2 μg/ml aprotinin. After a 30 min. incubation with lysis buffer at 4° C., the lysates were centrifuged at 14,000 g in a microcentrifuge for 5 min., and the supernatants were adjusted to 1% SDS concentration and boiled for 5 min. to denature the proteins. 1% TX100 was then added to dilute the lysates to a final concentration of 0.1% SDS. Cell lysates containing equal amounts of trichloroacetic acid (TCA)-insoluble radioactivity were used for immunoprecipitations by incubating with individual monoclonal antibody (1 μg/ml) for 2.5 hours at 4° C. Protein-A Sepharose 4B was added afterwards and the lysates incubated for another 1.5 hours at 4° C. to collect the immunocomplexes. […]

[1] = tested on: cysteine proteases, calpain and cathepsin B; conditions: Rock, et al., 1994; cited from earlier work
proteasomes = conditions: Rock, et al., 1994; cited from earlier work

## C[C@@H]1C[C@@H]([C@H](O)CC2CC(=O)NC(=O)C2)C(=O)[C@@H](C)C1 [cycloheximide]
hsp70, i.e. hsp72, mRNA
  effect of co-treatment on ALLN-induced increase in hsp72 mRNA: abolished
HSF1; 42° C. plus cycloheximide 50 μg/ml
  effect on heat shock-associated HSF1 trimerization: did not, however, affect
HSF1; ALLN 40 μg/ml plus cycloheximide 50 μg/ml, 37° C.
  effect of cotreatment on ALLN-induced HSF1 trimerization: abolished the effect of ALLN on HSF1 trimerization

## CC(C)C[C@@H](C=O)NC(=O)[C@H](CC(C)C)NC(=O)[C@H](CC(C)C)NC(=O)OCc1ccccc1 [MG132, Cbz-leucyl-leucyl-leucinal] (Cbz-Leu-Leu-Leu-aldehyde)
Hsp70; 4 hours, MG132 10 μM or 30 μM, lactacystin 10 μM, 30 min labeling
  induction of Hsp70 levels by proteasome inhibitors (FIG. 9): induced Hsp70 levels dramatically
HepG2 cells
  toxicity to the cells (TCA-precipitable radioactivities): without obvious toxicity

## CC(=O)N[C@@H](CC(C)C)C(=O)N[C@@H](CC(C)C)C(=O)N[C@H](C=O)CCCNC(=N)N [Leupeptin, leupeptin]
Hsp70
  induction of Hsp70 by protease inhibitors (FIG. 3A): ineffective

## aprotinin
Hsp70
  induction of Hsp70 by protease inhibitors (FIG. 3A): No induction

## CC(C)CC(=O)N[C@H](C(=O)N[C@H](C(=O)N[C@@H](CC(C)C)[C@@H](O)CC(=O)N[C@@H](C)C(=O)N[C@@H](CC(C)C)[C@@H](O)CC(=O)O)C(C)C)C(C)C [pepstatin] (Isovaleryl-VV[Sta]A[Sta]-OH)
Hsp70
  induction of Hsp70 by protease inhibitors (FIG. 3A): No induction

## Cc1c2oc3c(C)ccc(C(=O)N[C@@H]4C(=O)N[C@H](C(C)C)C(=O)N5CCC[C@H]5C(=O)N(C)CC(=O)N(C)[C@@H](C(C)C)C(=O)O[C@@H]4C)c3nc-2c(C(=O)N[C@@H]2C(=O)N[C@H](C(C)C)C(=O)N3CCC[C@H]3C(=O)N(C)CC(=O)N(C)[C@@H](C(C)C)C(=O)O[C@@H]2C)c(N)c1=O [actinomycin D] (I: T[dV]P[Sar][NMeV] / II: T[dV]P[Sar][NMeV]; ester I:1-I:C, II:1-II:C; linker I:N-II:N via Actinocin(9to1))
hsp70, i.e. hsp72, mRNA
  effect of co-treatment on ALLN-induced increase in hsp72 mRNA: abolished the effects of ALLN

## CSCC[C@@H](C=O)NC(=O)[C@H](CC(C)C)NC(=O)[C@H](CC(C)C)NC(C)=O [ALLM, N-acetyl-leucyl-leucyl-methioninal] (Ac-Leu-Leu-Met-aldehyde)
Hsp70
  induction of Hsp70 by protease inhibitors (FIG. 3A): significantly induce; also recorded: less ability to induce Hsp70 levels
[1]
  activities against calpain and cathepsin B: significant activities
proteasomes
  inhibition of proteasomes: potent inhibitors

## O=S(=O)(F)Cc1ccccc1 [PMSF, phenylmethylsulfonyl fluoride]
Hsp70
  induction of Hsp70 by protease inhibitors (FIG. 3A): No induction
